Data: ChEMBL document CHEMBL1153943, “Exploring the pharmacokinetic properties of phosphorus-containing selective HDAC 1 and 2 inhibitors (SHI-1:2)” (Bioorg Med Chem Lett, 2009)
Active and inactive are the calls of the source. No cut-off for these calls is given here.

Assays:
[1] = Cmax in mouse at 150 mg/kg, po; type: ADME, organism-based; design: dose 150 mg/kg, route oral; conditions: in vivo
[2] = target: Histone deacetylase 1 (Homo sapiens, UniProt Q13547); assay: Inhibition of HDAC1
[3] = test system: HCT-116; assay: Antiproliferative activity against human HCT116 cells after 72 hrs; type: functional; conditions: HCT-116, 72 h
[4] = AUC in mouse at 150 mg/kg, po; type: ADME, organism-based, Plasma; design: dose 150 mg/kg, route oral; conditions: whole blood
[5] = test system: Mus musculus; assay: Toxicity in human HCT116 cells xenografted CD1 mouse assessed as body weight loss at 100 mg/kg, po after 21 days; type: organism-based, HCT-116; design: dose 100 mg/kg, route oral; conditions: in vivo, 504 h
[6] = test system: HCT-116; assay: Antitumor activity against human HCT116 cells xenografted in po dosed mouse assessed as reduction in tumor growth dosed daily for 21 days; type: functional, organism-based
[7] = test system: Mus musculus; assay: Effect on histone H2B acetylation in human HCT116 cells xenografted in CD1 mouse assessed as change in ratio of acetylated to deacetylated histone level at 150 mg/kg, po QD for 3 days measured after 24 hrs; type: functional, organism-based; design: dose 150 mg/kg; conditions: HCT-116

Chain of Histone deacetylase 1 (Q13547 whole entry): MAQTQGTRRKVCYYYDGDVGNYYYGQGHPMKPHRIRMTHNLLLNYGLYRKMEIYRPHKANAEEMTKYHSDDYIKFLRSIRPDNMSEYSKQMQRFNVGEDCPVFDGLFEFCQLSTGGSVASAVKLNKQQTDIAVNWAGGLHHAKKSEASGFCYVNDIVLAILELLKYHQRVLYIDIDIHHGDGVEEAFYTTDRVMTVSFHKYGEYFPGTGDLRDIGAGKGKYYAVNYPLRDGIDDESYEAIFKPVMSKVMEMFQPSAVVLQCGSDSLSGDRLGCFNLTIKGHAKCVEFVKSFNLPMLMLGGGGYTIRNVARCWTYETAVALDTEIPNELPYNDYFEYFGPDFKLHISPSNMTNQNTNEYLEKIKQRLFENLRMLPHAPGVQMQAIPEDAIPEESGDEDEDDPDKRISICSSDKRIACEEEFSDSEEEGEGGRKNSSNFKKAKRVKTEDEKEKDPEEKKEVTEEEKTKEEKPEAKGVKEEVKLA

Row | SMILES | Cmax [1] | IC50 [2] | GI50 [3] | AUC [4] | Activity [5] | Activity [6] | Activity [7]
1 | COP(=O)(c1ccccc1)c1ccc(C(=O)Nc2cc(-c3cccs3)ccc2N)cc1 (configuration not stated) | 11 µM | 29 nM | 380 nM | 12 µM·h |  |  | 
2 | CCOP(=O)(c1ccccc1)c1ccc(C(=O)Nc2cc(-c3cccs3)ccc2N)cc1 (configuration not stated) | 0.56 µM | 21 nM | 170 nM | 0.91 µM·h |  |  | 
3 | COP(=O)(Cc1cccc(C(=O)Nc2cc(-c3cccs3)ccc2N)c1)c1ccccc1 (configuration not stated) |  | 140 nM | 8600 nM |  |  |  | 
4 | CC(C)P(=O)(Cc1ccc(C(=O)Nc2cc(-c3cccs3)ccc2N)cc1)C(C)C | 1.9 µM | 11 nM | 270 nM | 1.3 µM·h |  |  | 
5 | COP(=O)(Cc1ccc(C(=O)Nc2cc(-c3cccs3)ccc2N)cc1)c1ccccc1 (configuration not stated) |  | 20 nM | 360 nM |  |  |  | 
6 | CP(=O)(Cc1ccc(C(=O)Nc2cc(-c3cccs3)ccc2N)cc1)OCc1cccnc1 (configuration not stated) | 8.8 µM | 3.5 nM | 130 nM | 16 µM·h |  |  | 
7 | CCP(=O)(Cc1cccc(C(=O)Nc2cc(-c3cccs3)ccc2N)c1)OC (configuration not stated) |  | 90 nM | 6000 nM |  |  |  | 

More lines, main results first:

Row | Cmax [1] | IC50 [2] | GI50 [3] | AUC [4] | SMILES | Activity [5] | Activity [6] | Activity [7]
8 | 39 µM | 52 nM | 420 nM | 60 µM·h | COP(C)(=O)c1ccc(C(=O)Nc2cc(-c3cccs3)ccc2N)cc1 (configuration not stated) |  |  | 
9 | 88 µM | 54 nM | 160 nM | 115 µM·h | COP(C)(=O)Cc1ccc(C(=O)Nc2cc(-c3cccs3)ccc2N)cc1 (configuration not stated) | 22% | Dose-dependent effect | Active
10 |  | 38 nM | > 20000 nM |  | CCOP(=O)(O)Cc1ccc(C(=O)Nc2cc(-c3cccs3)ccc2N)cc1 |  |  | 
11 |  | 22 nM | 410 nM |  | CCOP(=O)(OCC)c1ccc(C(=O)Nc2cc(-c3cccs3)ccc2N)cc1 |  |  | 
